ChEMBL document CHEMBL1201862, “PubChem BioAssay data set” (2004)
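Cultured in 96-well plates, cells were exposed to test compound for 48 hours across five concentrations. At the GI50, growth is halved.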 Activity calls are given as the source filed them. Rule as the data show it: active = GI50 up to about 1.1 µM and inactive = higher.

How the values were obtained:
Test in all cases: NCI tumour cell line growth inhibition, 48 h
[1] = tested on: KM12
[2] = tested on: SW-620
[3] = tested on: LOX IMVI
[4] = tested on: HT-29
[5] = tested on: OVCAR-4
[6] = tested on: SNB-75
[7] = tested on: BT-549
[8] = tested on: HOP-92
[9] = tested on: Malme-3M
[10] = tested on: SNB-19
[11] = tested on: OVCAR-5
[12] = tested on: IGROV-1
[13] = tested on: HCT-15
[14] = tested on: RPMI-8226
[15] = tested on: RXF 393
[16] = tested on: UO-31
[17] = tested on: CCRF-CEM
[18] = tested on: MDA-MB-435
[19] = tested on: MCF7
[20] = tested on: SR

SMILES | GI50 [1] | GI50 [2] | GI50 [3] | GI50 [4] | GI50 [5] | GI50 [6] | GI50 [7] | GI50 [8] | GI50 [9] | GI50 [10] | GI50 [11] | GI50 [12] | GI50 [13] | GI50 [14] | GI50 [15] | GI50 [16] | GI50 [17] | GI50 [18] | GI50 [19] | GI50 [20]
c1cc2c(cc1NC1=NCCO1)CCCC2 | 2.77 µM (inactive) | 9.73 µM (inactive) | 3.13 µM (inactive) | 2.62 µM (inactive) | 10.7 µM (inactive) | 2.08 µM (inactive) | 13.7 µM (inactive) | 2.86 µM (inactive) | 6.7 µM (inactive) | 21.7 µM (inactive) | 6.07 µM (inactive) | 4.37 µM (inactive) | 3.45 µM | 2.92 µM (inactive) | 2.67 µM (inactive) | 6.97 µM (inactive) | 2.72 µM (inactive) | 1.57 µM (inactive) | 0.619 µM (active) | –
Cc1ccc(/N=N/NCCCCN/N=N/c2ccc(C)cc2)cc1 | – | > 100 µM (inactive) | 1.17 µM (inactive) | > 100 µM (inactive) | > 100 µM (inactive) | > 100 µM (inactive) | > 100 µM (inactive) | 25.3 µM (inactive) | > 100 µM (inactive) | – | > 100 µM (inactive) | 12.5 µM (inactive) | 4.93 µM | – | > 100 µM (inactive) | 0.196 µM (active) | 1 µM (active) | 11.8 µM (inactive) | 78.3 µM (inactive) | 17.5 µM (inactive)
CC(=O)Nc1ccc2nc(N)n[n+]([O-])c2c1 | > 100 µM (inactive) | > 100 µM (inactive) | > 100 µM (inactive) | > 100 µM (inactive) | > 100 µM (inactive) | 41.4 µM (inactive) | > 100 µM (inactive) | – | – | > 100 µM (inactive) | > 100 µM (inactive) | > 100 µM (inactive) | > 100 µM | > 100 µM (inactive) | – | > 100 µM (inactive) | > 100 µM (inactive) | > 100 µM (inactive) | > 100 µM (inactive) | > 100 µM (inactive)
CN1C(NN)=NS(=O)(=O)c2ccccc21 | > 100 µM (inactive) | > 100 µM (inactive) | > 100 µM (inactive) | > 100 µM (inactive) | > 100 µM (inactive) | – | > 100 µM (inactive) | > 100 µM (inactive) | – | > 100 µM (inactive) | > 100 µM (inactive) | > 100 µM (inactive) | > 100 µM | – | > 100 µM (inactive) | > 100 µM (inactive) | > 100 µM (inactive) | > 100 µM (inactive) | > 100 µM (inactive) | 8.51 µM (inactive)
CCOC(=O)Cc1c(C(=O)OCC)[n+]([O-])c2cc(Cl)c(Cl)cc2[n+]1[O-] | 1.32 µM (inactive) | 1.52 µM (inactive) | 2 µM (inactive) | 1.94 µM (inactive) | 1.89 µM (inactive) | 1.53 µM (inactive) | 2.45 µM (inactive) | – | 1.4 µM (inactive) | 3.5 µM (inactive) | 2.58 µM (inactive) | 1.01 µM (active) | 1.42 µM | 0.431 µM (active) | 2.12 µM (inactive) | 1.77 µM (inactive) | 3.13 µM (inactive) | 2.77 µM (inactive) | 1.57 µM (inactive) | 0.336 µM (active)
[O-][S+](Nc1ccccc1)c1ccc(-c2ccccc2)cc1 (centres undefined) | 58.6 µM (inactive) | > 100 µM (inactive) | 28.5 µM (inactive) | > 100 µM (inactive) | 38.1 µM (inactive) | – | 8.57 µM (inactive) | – | > 100 µM (inactive) | > 100 µM (inactive) | > 100 µM (inactive) | > 100 µM (inactive) | > 100 µM | > 100 µM (inactive) | – | > 100 µM (inactive) | > 100 µM (inactive) | > 100 µM (inactive) | > 100 µM (inactive) | > 100 µM (inactive)
COC(=O)C12C(=O)CC3CCC1C32C(=O)OC (centres undefined) | > 100 µM (inactive) | > 100 µM (inactive) | > 100 µM (inactive) | > 100 µM (inactive) | > 100 µM (inactive) | > 100 µM (inactive) | > 100 µM (inactive) | – | > 100 µM (inactive) | > 100 µM (inactive) | > 100 µM (inactive) | > 100 µM (inactive) | > 100 µM | > 100 µM (inactive) | > 100 µM (inactive) | > 100 µM (inactive) | > 100 µM (inactive) | > 100 µM (inactive) | > 100 µM (inactive) | > 100 µM (inactive)
COc1ccc(S(=O)(=O)n2c3c(c4ccccc42)[C@@H]2[C@@H](CCCN2C(=O)C[S+]([O-])c2ccc(C)cc2)[C@H](Cl)C3)cc1 (some centres undefined) | > 100 µM (inactive) | > 100 µM (inactive) | > 100 µM (inactive) | > 100 µM (inactive) | – | > 100 µM (inactive) | 5.83 µM (inactive) | > 100 µM (inactive) | > 100 µM (inactive) | > 100 µM (inactive) | > 100 µM (inactive) | 1.51 µM (inactive) | > 100 µM | – | > 100 µM (inactive) | > 100 µM (inactive) | > 100 µM (inactive) | > 100 µM (inactive) | > 100 µM (inactive) | > 100 µM (inactive)
CCCCn1c(C)c2c(c1C)C(=O)N(CC(O)CN1CCc3ccccc3C1)C2=O (centres undefined) | 57 µM (inactive) | > 100 µM (inactive) | 49.7 µM (inactive) | 37.8 µM (inactive) | 56.9 µM (inactive) | > 100 µM (inactive) | > 100 µM (inactive) | > 100 µM (inactive) | 93.3 µM (inactive) | > 100 µM (inactive) | > 100 µM (inactive) | > 100 µM (inactive) | > 100 µM | 76.9 µM (inactive) | 67.6 µM (inactive) | 59 µM (inactive) | 69.8 µM (inactive) | 60.1 µM (inactive) | 33.3 µM (inactive) | –
CN(C)CCN1C(=O)c2cccc3cc(N)cc(c23)C1=O [AMONAFIDE] | 4.37 µM (inactive) | 1.65 µM (inactive) | 2.46 µM (inactive) | 3.3 µM (inactive) | 4.71 µM (inactive) | 5.33 µM (inactive) | 4.01 µM (inactive) | 3.23 µM (inactive) | 3.31 µM (inactive) | 4.21 µM (inactive) | 4.83 µM (inactive) | 3.49 µM (inactive) | 2.6 µM | 2.49 µM (inactive) | 4.06 µM (inactive) | 4.18 µM (inactive) | 1.91 µM (inactive) | 3.37 µM (inactive) | 1.87 µM (inactive) | –
C[C@H](N)C(=O)N[C@@H]1[C@H]2C(=C(O)C[C@@H](O)[C@@H]2O)C(=O)O[C@]1(C)C(Cl)Cl [BACTOBOLIN] | 0.172 µM (active) | 0.145 µM (active) | 0.0946 µM (active) | 0.155 µM (active) | 0.133 µM (active) | 0.185 µM (active) | 0.165 µM (active) | 0.111 µM (active) | 0.278 µM (active) | 0.167 µM (active) | 0.604 µM (active) | 0.361 µM (active) | 0.597 µM | – | 0.17 µM (active) | 0.979 µM (active) | – | 0.248 µM (active) | 0.146 µM (active) | 0.0776 µM (active)
